Earlier results on 2 compounds are cited in patent US20050272755A1, “Method for treating abnormal cell growth” (priority 2004, published 2005).

Data set [1] deals with metastatic colorectal cancer.
A further data set deals with colorectal cancer. To be noted: colorectal cancer patients resistant to 5-FU.

Structures are written as SMILES. Where a name gives a salt, the structure may show the parent alone. Read-outs that look alike come from different tables or passages of the source.

Regarding `CCCCCOC(=O)Nc1nc(=O)n([C@@H]2O[C@H](C)[C@@H](O)[C@H]2O)cc1F` [capecitabine, 5′-deoxy-5-fluoro-N-[(pentyloxy)-carbonyl]-cytidine], the median survival is 13.3 months in data set [1] (European trial) and 12.5 months in data set [1] (US trial). Further, in data set [1] (capecitabine treatment arms), the “grade 3-4 toxicity: diarrhea” value is 14%. For the same compound, in data set [1] (capecitabine treatment arms), the “grade 3-4 toxicity: hand-foot syndrome” value was 17%. Moreover, the Overall response rate in data set [1] (first of the two phase III studies ('respectively'; Europe N=602 named first), capecitabine 2500 mg/m^2/day for 14 days every 3 weeks) is 21%; in data set [1] (second of the two phase III studies ('respectively'; US N=605 named second)), 21%.

Turning to `CCc1c2c(nc3ccc(OC(=O)N4CCC(N5CCCCC5)CC4)cc13)-c1cc3c(c(=O)n1C2)COC(=O)[C@]3(O)CC` [CPT-11, irinotecan hydrochloride trihydrate], in the data set on colorectal cancer, the “survival compared with 5-FU/FA best infusional regimens” value is reported as “longer survival” and the “survival compared with supportive care only” value is “longer survival”.
